Usually melting point stands for the temperature, or range, at which the solid turns liquid.

Some results are limits rather than exact numbers.

`O=C(O)Cc1c(C(=O)c2ccc(Br)cc2)[nH]c2cc(Cl)ccc12`: the melting point fell in the range of 199 to 201 °C.

`CCN1c2ncccc2C(=O)Nc2c(C)cc(N3CCC[C@H]3CO)nc21` gave a melting point of 238 to 240 °C.

With `CCOCc1nc2c(N)nc(C)c(C)c2n1NC1CCOCC1`, the melting point lay within 120 to 122 °C.

`O=C(CCC(=O)N1CCC(c2ccc(Cl)cc2)CC1)c1ccc2c(c1)CCN(CC1CCCCC1)CC2` returned a melting point of 140 to 141 °C.

For `CCCCCC(CC(=O)Nc1cc(C(=O)O)ccc1C(C)(C)C)c1ccc(CCCC)cc1OC` (stereo not drawn), the melting point lay in the range of 136 to 138 °C.

`CCOc1cccc(-c2ccc3c(c2)C=C(C(=O)Nc2ccc(CN(C)C4CCOCC4)cc2)CCS3(=O)=O)c1` displayed a melting point of 192 to 195 °C.

Take `O=c1cc(Oc2ccccc2)c(-c2nc[nH]n2)cn1-c1ccccc1`: the melting point lay in the range of 275 to 276 °C.

With `C#Cc1cnn2c(C3CC3)cc(-c3ccc(Cl)cc3)nc12`, the melting point lay within 181 to 182 °C.

Consider `CCC1CC2=C(CO1)C(=O)c1ccccc1C2=O` (stereo not drawn), for which the melting point lay within 98 to 101 °C.

Turning to `Cc1cccc(C(=O)O)c1OCc1ccc(C(F)(F)F)cc1`, the melting point fell in the range of 104 to 106 °C.

`CCOC(=O)c1ccc(NC(=O)Nc2nnc(-c3cc(Cl)cc(Cl)c3O)s2)cc1` returned a melting point of more than 300 °C.

Take `COc1ccc2c(c1)C1=C(SCC3(CCNCC3)O1)C(=O)C2=O`: the melting point was in the range of 224 to 226 °C.

`Cc1ccc2c(c1)c1cc(C(=O)N3CCOCC3)sc1n2C`: the melting point was 158 to 160 °C.

In turn, `COc1cc(OC)nc(OC2C(=O)OCC2(C)C)n1` (stereo not drawn) registered a melting point of 139 to 142 °C.

The compound `CC(c1ccc(F)cc1)n1nc(-c2ccc(F)cc2)c(-c2ccc(S(C)(=O)=O)cc2)cc1=O` (stereo not drawn) displayed a melting point of 185 to 186 °C.

Compound `CCCCCCCCCCCCCCCCCCOCC(COC(c1ccccc1)(c1ccccc1)c1ccccc1)OC(=O)N1CCOCC1` (stereo not drawn) came in with a melting point of 78 to 79 °C.

For the compound `CCC1CC(=O)N(CCc2ccc(NC(=O)c3cnccn3)cc2)N=C1c1ccc(OC)c(OC)c1` (stereo not drawn), the melting point came out at 202 °C.

`CC1(C)CN(C(=N)NC=C(C#N)C(=O)N(CC2CC2)c2cccc(C(F)(F)F)c2)C(=O)N1` showed a melting point of 121 to 122 °C.

In turn, `COc1cccc(C2(CNC(=O)Nc3c(C(C)C)cc(N)cc3C(C)C)CCN(c3ccccc3O)CC2)c1` displayed a melting point of 207 to 208 °C.

Turning to `COC(=O)c1cccc(Nc2nccc(-c3sc(N)nc3-c3ccccc3)n2)c1`, the melting point lay in the range of 223 to 225 °C.

In the case of `CC1(C)Oc2cc([N+](=O)[O-])sc2C(N2CCCCC2=O)C1O` (stereo not drawn), the melting point was found to be 158 °C.

For the compound `C=CCCCCCCOc1ccc(CCC(NC(C)=O)(C(=O)OCC)C(=O)OCC)cc1`, the melting point was in the range of 50 to 53 °C.

In turn, `CCC(C(=O)C(C)C(O)C(C)CCc1c(N)cc(C)c(O)c1C(=O)O)C1OC(CC)(C2CCC(O)(CC)C(C)O2)CC1C` (stereo not drawn) returned a melting point of 223 to 225 °C.

Compound `CC(=O)Oc1ccccc1C(=O)Nc1ncc(S(C)(=O)=O)s1` returned a melting point of 173 to 175 °C.

Regarding `COc1ccc2c(c1)c(C#N)cn2C`, the melting point lay in the range of 100 to 104 °C.

The compound `CN(C(=O)C1CCC1)c1cccc(-c2ccnc3c(C#N)cnn23)c1` came in with a melting point of 157 to 158 °C.

With `OCc1ccnc(Br)c1`, the melting point was in the range of 63.3 to 64.4 °C.

In the case of `CCc1cc2c(SCC(=O)OC)ncnc2s1`, the melting point lay in the range of 36 to 58 °C.

As for `Cc1cccc2c(=O)[nH]c(CC3CN4CCC3CC4)nc12` (stereo not drawn), the melting point lay in the range of 187 to 188 °C.

For the compound `Brc1cncc(-c2ccccc2Oc2ccccc2)c1`, the melting point is 109 °C.

As for `O=C(O)c1ccc(C(=O)N[C@@H](Cc2c[nH]c3ccccc23)C(=O)O)cc1`, the melting point was in the range of 187 to 189 °C.

Compound `CN(C)C(=O)CCC(=NNC(N)=S)c1ccccc1` came in with a melting point of 173 to 175 °C.

As for `CCC(C)(N)Cc1c[nH]c2ccccc12` (stereo not drawn), the melting point was determined as 112 °C.

For `COc1c(N2CCC(n3cc(C)nn3)C2)c(F)c(N)c2c(=O)c(C(=O)O)cn(C3CC3)c12` (stereo not drawn), the melting point was determined as 256 °C.

`COCC1CN(c2ccc(C3CCCCC3)c([N+](=O)[O-])c2)C(=O)O1` (racemic): the melting point was 105 to 106 °C.

In turn, `CC(Oc1cc(-c2nn(C)c(C(F)(F)F)c2Cl)c(F)cc1Cl)C(=O)O` (stereo not drawn) came in with a melting point of 150 to 151 °C.

Regarding `COc1ccc(/C=C/C(=O)Nc2ccccc2)cc1OC`, the melting point was in the range of 131 to 133 °C.

Compound `COc1cc([N+](=O)[O-])c2nccc(C)c2c1Cl` displayed a melting point of 167 to 169 °C.

On to `COc1cc(OC)nc(C(OC)(C(=O)NS(C)(=O)=O)c2ccccc2)n1` (stereo not drawn), for which the melting point is 155 to 157 °C.

`CS(=O)(=O)NC(=O)C1(CCCCCCCCCCCCC2(C(=O)O)CC2)CC1` displayed a melting point of 97.5 to 99.4 °C.

In turn, `CC(C)c1cccc(-c2ccc(F)cc2)c1OCCOc1ccc(C(=O)C(=O)O)cc1` yielded a melting point of 123 to 125 °C.

In turn, `NC(=O)c1[nH]nc([C@@H]2O[C@H](CO)[C@@H](O)[C@H]2O)c1O` showed a melting point of 112 to 115 °C.

As for `CN1C(=O)C2(COc3cc4c(cc32)OCCO4)c2c(NC(=O)c3ccccc3C(F)(F)F)cccc21` (stereo not drawn), the melting point lay within 241 to 243 °C.

For the compound `CC1=C(C(=O)OCCOC(C)C)C(c2cccc(Cl)c2Cl)C(c2nnco2)=C(C)N1` (stereo not drawn), the melting point is 151 to 154 °C.

The compound `O=C(Nc1nc(C(F)(F)F)co1)C1c2ccccc2Oc2c(Cl)cccc21` (racemic) had a melting point of 212 °C.

With `CC(=O)Nc1c(Cl)cc(CC(=O)O)cc1Cl`, the melting point fell in the range of 209 to 211 °C.

Turning to `O=C(O)c1ccccc1OCCN1CCC(c2cn(CCCC3OCCO3)c3ccccc23)CC1`, the melting point fell in the range of 147 to 149 °C.

The compound `COC(=O)Nc1c(C#N)cnn1-c1c(Cl)cc(SC(F)(F)F)cc1Cl` yielded a melting point of 145 °C.

Consider `NC(=O)C1(Nc2ccc(I)cc2)CCCC1`, for which the melting point was 148 °C.

In the case of `Cc1ccc2c(cc(C(=O)O)n2CCCC#N)c1C`, the melting point was found to be 175 °C.

`COc1ccc2[nH]c3c(c2c1[N+](=O)[O-])CCC3=O` came in with a melting point of 293 °C.

`COc1cc(C=CC(=O)C(C)C(=O)C=Cc2ccc(O)c(OC)c2)ccc1O` (stereo not drawn) yielded a melting point of 180 to 183 °C.

On to `COc1ccc2[nH]c(SCc3cc(N4CCOCC4)c(F)cn3)nc2c1`, for which the melting point fell in the range of 142 to 144 °C.

The compound `CCOC(=O)c1oc2cccc(C(C)OC)c2c1C` (stereo not drawn) showed a melting point of 67 to 69 °C.

Take `Cn1c(Cl)c(C=C(C#N)S(C)(=O)=O)c2ccccc21`: the melting point turned out to be 180 °C.

`O=Cc1ccc2c(c1)CC(Cc1ccccc1)O2` (stereo not drawn) returned a melting point of 77 to 80 °C.

Compound `COC(=O)[C@H](Cc1ccccc1)NC(=O)[C@H](Cc1ccccc1)NC(=O)c1cnccn1` yielded a melting point of 111 to 113 °C.

As for `O=C(CCSC(=O)c1ccccc1)N[C@@H](Cc1ccccc1)C(=O)O`, the melting point lay in the range of 123 to 124 °C.

For `CCC1CCCCN1C(=O)C=Cc1c(-c2cccc(NC)c2)nn2ccccc12` (stereo not drawn), the melting point was 135 to 141 °C.

Compound `CCN(CC)C(=O)c1c(C(F)F)ccc(F)c1[Si](C)(C)C` returned a melting point of 65 to 67 °C.

In turn, `O=C(O)Cc1ccc(-n2cc(Cl)cn2)cc1Cl` had a melting point of 152 to 153 °C.

For the compound `Cc1c2n(c(=O)[nH]c1=O)CCCS2`, the melting point was in the range of 196 to 198 °C.

Compound `CCC(=O)Nc1c(C(=O)c2cc(CO)co2)[nH]c2cc(Cl)ccc12` had a melting point of 171 to 172 °C.

Turning to `COC(=O)C(Oc1nc(OC)cc(OC)n1)C(C)(OCc1ccccc1)c1ccccc1` (stereo not drawn), the melting point lay in the range of 115 to 117 °C.

`c1cc(-n2ccnc2)cc(-n2cnc3cc(-c4ccoc4)cnc32)c1` showed a melting point of 202 to 204 °C.

As to `CC(C)CNC(=S)Nc1cc(Cl)cc(Cl)c1`, the melting point is 144 °C.

Turning to `COC(=O)[C@@H]1C[C@H](C(=O)OC(C)(C)C)N(C(=O)CNC(=O)OC(C)(C)C)[C@@H]1c1ccccc1F` (racemic), the melting point came out at 142 °C.

For `NCCc1cn(S(=O)(=O)c2ccccc2Cl)c2cccnc12`, the melting point fell in the range of 106 to 108 °C.

The compound `CC(C)(CC(O)(C(=O)Nc1ccccc1)C(F)(F)F)c1cc(F)ccc1O` (stereo not drawn) yielded a melting point of 124 to 126 °C.

Turning to `COC(=O)Nc1nc(-c2ccccc2)c(-c2nc3ccccc3c(=O)n2-c2ccc(Cl)cc2)s1`, the melting point was more than 275 °C.

For the compound `O=CNC1Cc2cccc3c2N(CCC3)C1=O` (stereo not drawn), the melting point lay in the range of 140 to 143 °C.

In turn, `CCc1ccc2cc(C3(Cn4ccnc4)OCCO3)ccc2c1` had a melting point of 251 °C.

Consider `CC(C)(O)CCC[C@@](C)(CC#CC(O)(C(F)(F)F)C(F)(F)F)[C@H]1CC[C@H]2[C@@H](O)CCC[C@]12C`, for which the melting point lay in the range of 146 to 147 °C.

With `O=C(O)CC1(CC(=O)O)c2ccccc2C(=O)c2ccccc21`, the melting point is 230 to 232 °C.

For the compound `CCOC(=O)C(NC(=O)OCc1ccccc1)C(=O)O` (stereo not drawn), the melting point was in the range of 65 to 70 °C.

Compound `C#Cc1cn(-c2c(Cl)cc(C(F)(F)F)cc2Cl)c2ccccc12` came in with a melting point of 120 to 122 °C.

As for `C#CCn1cc(Cc2ccc(C(=O)OC)cc2OC)c2cc(NC(=O)CC3CCCC3)ccc21`, the melting point is 160 to 161 °C.

In turn, `N#CC1CCc2c(OCCn3ccnc3)cccc21` (stereo not drawn) returned a melting point of 115 to 117 °C.

The compound `O=C(O)c1c2c(nc3ccc(F)cc13)-c1ccc(-c3cccc(F)c3)cc1CCC2` returned a melting point of more than 300 °C.

Take `Cc1c(-c2ccccc2)sc2ncc(C(=O)C(C)C)c(O)c12`: the melting point fell in the range of 114 to 117 °C.

In the case of `O=C(O)COc1ccc2cc(CNC(=O)c3cc(-c4ccc(Cl)cc4)oc3C(F)(F)F)ccc2c1`, the melting point was in the range of 194 to 196 °C.

The compound `CCC1(COC(=O)c2cccc3ccccc23)COC1` yielded a melting point of 62 °C.

Take `O=C(O)c1ccc2c(c1)S(=O)(=O)c1cc(C(=O)O)ccc1O2`: the melting point was in the range of 399 to 401 °C.

Compound `CCCCCCCCOC(=O)c1ccc(OC(=O)c2ccc(C(=O)Oc3ccc(C(=O)OCCCCCCCC)cc3)cc2)cc1` came in with a melting point of 108 to 110 °C.

`COc1cc(NCCO)c([N+](=O)[O-])c(NCCO)c1`: the melting point amounted to 150 °C.

In turn, `Cc1cccc(Nc2cc(Cl)nc(S(C)(=O)=O)n2)c1C` registered a melting point of 140 to 142 °C.

As for `COc1ccc(C(=O)N2c3ccc(OC)cc3CC2C(=O)O)cc1` (stereo not drawn), the melting point was 151 to 152 °C.

Regarding `CCN1CN(C)C(=S)N(c2cc(Cl)ccc2C)C1`, the melting point was in the range of 93 to 95 °C.

The values are drawn from a melting point compilation (Tetko et al.; mined from patent text by program, amines drawn as free bases though some values may be those of a salt).
